Data set [1] in a line: In vitro effective concentration against HIV-1 cytopathic effect in T4 cells. The conditions noted are these: Homo sapiens. Type of data set: functional, cell-based. For orientation: Protection from cytopathic effect is a common read-out in antiviral testing.
The next data set deals with MT4. Put plainly: In vitro inhibitory activity against uninfected T4 cells. Type of data set: functional, cell-based. The conditions noted are these: Homo sapiens.
Data set [2] concerns Breast cancer cell line. As to the kind of experiment: In vitro growth inhibitory concentration against breast cancer cell lines. Type of data set: functional. The conditions noted are these: Homo sapiens.
In data set [3] the test system is NSCLC. As to the kind of experiment: In vitro growth inhibitory concentration against non-small-cell lung cancer. Type of data set: functional. To be noted: Homo sapiens.
The nature of data set [4]: Full panel mean-graph midpoint (MG-MID).
The test system of data set [5] is Panel renal (Carcinoma cell lines). As to the kind of experiment: In vitro median growth inhibitory concentration against renal cancer cell lines. Type of data set: functional. To be noted: Homo sapiens.
Data set [6] has as its system Ovarian cancer cell line. As to the kind of experiment: In vitro growth inhibitory concentration against ovarian cancer cell lines. Type of data set: functional. The conditions noted are these: Homo sapiens.
The test system of data set [7] is NSCLC. Put plainly: In vitro median growth inhibitory concentration against non-small-cell lung cancer. Type of data set: functional. The conditions noted are these: Homo sapiens.
For data set [8], the system named is Panel renal (Carcinoma cell lines). Put plainly: In vitro growth inhibitory concentration against renal cancer cell lines. Type of data set: functional. To be noted: Homo sapiens.
For data set [9], the system named is Tumor cell line. As to the kind of experiment: Median lethal concentration was estimated. The conditions noted are these: human. Type of data set: ADME, cell-based.
Data set [10] deals with Panel prostate (Carcinoma cell lines). Put plainly: In vitro median growth inhibitory concentration against prostate cancer cell lines. Type of data set: functional. To be noted: Homo sapiens.
A short description of data set [11]: In vitro median growth inhibitory concentration against colon cancer cell lines. Type of data set: functional. To be noted: Homo sapiens.
In data set [12] the test system is Ovarian cancer cell line. Put plainly: In vitro median growth inhibitory concentration against ovarian cancer cell lines. Type of data set: functional. The conditions noted are these: Homo sapiens.
Data set [13] has as its system Panel prostate (Carcinoma cell lines). As to the kind of experiment: In vitro growth inhibitory concentration against prostate cancer cell lines. Type of data set: functional. The conditions noted are these: Homo sapiens.
A short description of data set [14]: Full panel mean-graph midpoint (MG-MID).
Data set [15] has as its system Breast cancer cell line. As to the kind of experiment: In vitro median growth inhibitory concentration against breast cancer cell lines. Type of data set: functional. The conditions noted are these: Homo sapiens.
Data set [16] has as its system Panel melanoma (Carcinoma cell lines). Put plainly: In vitro growth inhibitory concentration against melanoma cancer cell lines. Type of data set: functional. The conditions noted are these: Homo sapiens.
Data set [17] concerns Panel leukemia (Carcinoma cell lines). As to the kind of experiment: In vitro median growth inhibitory conc. against leukemia was estimated. Type of data set: functional. The conditions noted are these: Homo sapiens.
Data set [18] concerns Human immunodeficiency virus 1. Put plainly: (§1) In vitro effective concentration against HIV-1 cytopathic effect in T4 cells; Inactive. Type of data set: functional, organism-based.
The subject of data set [19] is Panel melanoma (Carcinoma cell lines). Put plainly: In vitro median growth inhibitory concentration against melanoma cell lines. Type of data set: functional. To be noted: Homo sapiens.
The subject of data set [20] is Panel CNS (Carcinoma cell lines). Put plainly: In vitro growth inhibitory concentration against CNS cancer cell lines. Type of data set: functional. To be noted: Homo sapiens.
Data set [21] deals with Panel leukemia (Carcinoma cell lines). As to the kind of experiment: In vitro growth inhibitory concentration against leukemia tumor cell lines. Type of data set: functional. The conditions noted are these: Homo sapiens.
The species named for the next data set is Homo sapiens. Put plainly: Selectivity ratio between the full panel MG-MID and leukemia subpanel MG-MID was determined. Type of data set: functional.
Data set [22] is described as follows: In vitro growth inhibitory concentration against colon cancer tumor cell lines. Type of data set: functional. The conditions noted are these: Homo sapiens.
Data set [23] deals with Panel CNS (Carcinoma cell lines). As to the kind of experiment: In vitro median growth inhibitory concentration against CNS cancer cell lines. Type of data set: functional. The conditions noted are these: Homo sapiens.
Data set [24] has as its system Human alphaherpesvirus 1. Put plainly: In vitro antiviral activity against Herpes Simplex-1 virus (HSV-1) expressed as percent reduction in the number of viral plaques. Type of data set: functional. Also on record: concentration or dose not given beside the values.
The test system of data set [25] is Human alphaherpesvirus 1. Put plainly: Minimum antiviral concentration proved to be lethal to viral population in uM. Type of data set: functional.
Data set [26] concerns Human alphaherpesvirus 1. Put plainly: concentration caused 50% loss of the monolayer present around the viral plaques in ug/mL. Type of data set: functional, organism-based.
For data set [27], the system named is Human alphaherpesvirus 1. Put plainly: 50% loss of the monolayer present around the viral plaques in uM. Type of data set: functional, organism-based.
In data set [28] the test system is Human alphaherpesvirus 1. As to the kind of experiment: Minimum antiviral concentration proved to be lethal to viral population in ug/mL. Type of data set: functional.
For the next data set, the system named is T4. The data set is described as §1. Type of data set: functional, cell-based. To be noted: Homo sapiens.
Data set [29] concerns Tumor cell line. As to the kind of experiment: In vitro for median growth inhibitory concentration against breast cancer cell lines. Type of data set: functional. To be noted: Homo sapiens.
For data set [30], the system named is Tumor cell line. As to the kind of experiment: In vitro for median growth inhibitory concentration against non small lung cancer cell lines. Type of data set: functional. The conditions noted are these: Homo sapiens.
In data set [31] the test system is Tumor cell line. As to the kind of experiment: In vitro for growth inhibitory concentration against non small lung cancer cell lines. Type of data set: functional. The conditions noted are these: Homo sapiens.
For data set [32], the system named is Tumor cell line. As to the kind of experiment: In vitro for median growth inhibitory concentration against melanoma cell lines. Type of data set: functional. The conditions noted are these: Homo sapiens.
Data set [33] relates to Tumor cell line. As to the kind of experiment: In vitro for median growth inhibitory concentration against ovarian cancer cell lines. Type of data set: functional. To be noted: Homo sapiens.
Data set [34] deals with Human alphaherpesvirus 1. As to the kind of experiment: Concentration which caused 50% loss of the monolayer present around the viral plaques in ug/mL. Type of data set: functional, organism-based.
The test system of data set [35] is Tumor cell line. Put plainly: In vitro for median growth inhibitory concentration against prostate cancer cell lines. Type of data set: functional. To be noted: Homo sapiens.
Data set [36] relates to Human alphaherpesvirus 1. As to the kind of experiment: Concentration which caused 50% loss of the monolayer present around the viral plaques in uM. Type of data set: functional, organism-based.
In data set [37] the test system is Tumor cell line. Put plainly: In vitro for median growth inhibitory concentration against CNS cancer cell lines. Type of data set: functional. To be noted: Homo sapiens.
The subject of data set [38] is Tumor cell line. As to the kind of experiment: In vitro for median growth inhibitory concentration against renal cancer cell lines. Type of data set: functional. The conditions noted are these: Homo sapiens.
Data set [39] deals with Tumor cell line. Put plainly: In vitro for median growth inhibitory concentration against leukemia. The conditions noted are these: Homo sapiens. Type of data set: functional.
Data set [40] deals with Tumor cell line. Put plainly: In vitro for median growth inhibitory concentration against colon cancer cell lines. Type of data set: functional. The conditions noted are these: Homo sapiens.
For data set [41], the system named is Tumor cell line. Put plainly: In vitro for median growth inhibitory conc. against leukemia (compounds full panel MG-MID/leukemia subpanel MG-MID). Type of data set: functional. The conditions noted are these: Homo sapiens.

Values after ≈ are worked out from the molar mass of the structure shown. Values joined by “and” are separate entries in the source; they are usually repeats but may differ in a detail not shown here. Equal values may be shown once. Active and inactive are the calls of the source. The calls are words filed in the database; no cut-off is given here.

For orientation: EC50 means the concentration that produces a half-maximal response. The IC50 is the concentration at which inhibition is half-maximal. Usually TGI stands for the concentration giving total growth inhibition. Usually GI50 stands for the concentration at which growth is held to half of that of the control. Broadly, the LC50 is the concentration that kills 50% of the test population.

The compound `Cc1cn([C@H]2C[C@H](N=[N+]=[N-])[C@@H](CO)O2)c(=O)[nH]c1=O` [ZIDOVUDINE] yielded an EC50 in data set [1] of 0.0007 µM. Besides, in the data set on MT4, the IC50 stood at 35.6 µM.

Take `CN1C/C(=C\c2cccs2)C2=NN(c3ccccc3)C(c3cccs3)C2C1` (centres undefined): the TGI (in the data set on Breast cancer cell line [2]; in the data set on NSCLC [3]; in the data set with Ovarian cancer cell line [6]; in [8]; in data set [13]; in data set [16]) was above 100 µM throughout. The TGI is above 100 µM in [20], 52.2 µM in data set [21] and 87.1 µM in data set [22]. In addition, the MG-MID in data set [4] was 72.9 µM; in data set [14], 8.5 µM. Also, the GI50 was 65.3 µM in data set [5]; 20.8 µM in the data set with NSCLC [7]; 19.3 µM in [10]; 3.8 µM in data set [11]; 24.2 µM with Ovarian cancer cell line [12]; 23.6 µM in the data set on Breast cancer cell line [15]. Besides, the GI50 in [17] was 2.2 µM; in data set [19], 42.5 µM; in data set [23], 35.7 µM. In addition, the LC50 in the data set on Tumor cell line [9] is 95.8 µM. The compound further had an IC50 in the data set with MT4 of 9.1 µM. For the same compound, the EC50 entry in [18] is on record as “Not Active”. Further, in the data set listed under Homo sapiens, the Ratio was determined as 3.9.

With `CN1CC2=C(N=C(S)NC2c2cccs2)/C(=C/c2cccs2)C1` (centres undefined), the Reduction in the data set on Human alphaherpesvirus 1 [24] is 27%. The concentration for total growth inhibition (TGI) in the data set on Breast cancer cell line [2] is 98.1 µM; in the data set with NSCLC [3], above 100 µM; with Ovarian cancer cell line [6], above 100 µM; in data set [8], above 100 µM; in [13] it was above 100 µM; in data set [16], above 100 µM. For the same compound, the TGI in data set [20] is above 100 µM; in data set [21], 69.8 µM; in data set [22], above 100 µM. Also, the MG-MID in data set [4] was 53.5 µM and 95.8 µM. Besides, the GI50 in data set [5] is 75 µM; with NSCLC [7], 67.2 µM; in [10] it was above 100 µM; in data set [11], 70.5 µM; in the data set with Ovarian cancer cell line [12], 65.5 µM; with Breast cancer cell line [15], 45.1 µM. The values for the GI50 in data set [17], in data set [19] and in data set [23] were 22.4 µM, 60.5 µM and 76.1 µM, respectively. Moreover, the MAC turned out to be 0.29 µM with Human alphaherpesvirus 1 [25] and 0.1 µg/mL in the data set with Human alphaherpesvirus 1 [28]. Besides, the IC50 was 0.15 µg/mL (≈ 0.417 µM) in the data set on Human alphaherpesvirus 1 [26], 0.58 µM in the data set with Human alphaherpesvirus 1 [27] and 34 µM in the data set with MT4. Besides, the EC50 entry in data set [18] is recorded as “Not Active”. The Ratio in the data set filed under Homo sapiens amounted to 2.4.

For `CN1C/C(=C\c2cccs2)C(=O)/C(=C/c2cccs2)C1`, the Reduction in the data set on Human alphaherpesvirus 1 [24] is on record as 33%. Besides, the TGI in the data set with Breast cancer cell line [2] was 75.4 µM; in the data set with Ovarian cancer cell line [6] it was 81.4 µM; in the data set with Tumor cell line [31] it was 90.1 µM; in data set [8], 70.4 µM; in [16], 84.1 µM; in data set [20] it was 82.7 µM. Moreover, the TGI was 51.6 µM in data set [21] and 72.2 µM in data set [22]. Besides, in the data set on T4, the Inhibition entry was “inactive”. In addition, the GI50 is 28.7 µM in the data set on Tumor cell line [29]; 36.5 µM with Tumor cell line [30]; 34.6 µM in the data set on Tumor cell line [32]; 23.5 µM in the data set with Tumor cell line [33]; 23.9 µM with Tumor cell line [35]; 36.6 µM with Tumor cell line [37]. The GI50 stood at 24.2 µM in the data set with Tumor cell line [38], 10.6 µM in the data set with Tumor cell line [39] and 23.7 µM in the data set on Tumor cell line [40]. Moreover, the MAC with Human alphaherpesvirus 1 [25] came out at 3.3 µM; with Human alphaherpesvirus 1 [28] it was 0.1 µg/mL. Also, the IC50 is 0.2 µg/mL (≈ 0.663 µM) in the data set on Human alphaherpesvirus 1 [34], 0.66 µM in the data set with Human alphaherpesvirus 1 [36] and 15.2 µM with MT4.

For the compound `CN1CC2=C(OC(N)=C(C#N)C2c2cccs2)/C(=C/c2cccs2)C1` (centres undefined), the TGI was 57.7 µM with Breast cancer cell line [2]; 27.9 µM in the data set with Tumor cell line [29]; 73.2 µM with Ovarian cancer cell line [6]; 75.5 µM in the data set on Tumor cell line [31]; 81.6 µM in [8]; 90.9 µM in data set [13]. The TGI was 87 µM in [16], above 100 µM in [20], 27.6 µM in data set [21] and 87.3 µM in [22]. The GI50 is 16.3 µM in the data set on Tumor cell line [30]; 3.2 µM in the data set on Tumor cell line [41]; 36.3 µM in the data set with Tumor cell line [32]; 25 µM in the data set with Tumor cell line [33]; 13.5 µM in the data set on Tumor cell line [35]; 42.2 µM with Tumor cell line [37]. Further, the GI50 with Tumor cell line [38] worked out at 32.5 µM; in the data set on Tumor cell line [40], 17.3 µM. Besides, the MG-MID in data set [4] turned out to be 57.8 µM; in data set [14], 11.6 µM. The compound also yielded an IC50 in the data set with MT4 of 9 µM. The EC50 result in data set [18] was “Not Active”.

Source of the values: ChEMBL document CHEMBL1133460, “Synthesis and biological evaluation of certain alpha,beta-unsaturated ketones and their corresponding fused pyridines as antiviral and cytotoxic agents” (J Med Chem, 2000).
